According to PubChem BioAssay (NCI):
Where “and” joins values, the source holds several entries; their conditions need not be identical. Equal entries are not always repeated.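 All cell lines were grown in 96-well plates and treated with compound for 48 hours. TGI: total growth inhibition.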

Legend:
Assay in all cases: NCI tumour cell line growth inhibition, 48 h
[1] = system: TK-10 renal
[2] = system: BT-549 breast
[3] = system: SK-OV-3 ovarian
[4] = system: M14 melanoma
[5] = system: NCI-H460 lung
[6] = system: SR leukemia
[7] = system: EKVX NSCLC
[8] = system: MDA-MB-231 breast
[9] = system: SK-MEL-2 melanoma
[10] = system: SN12C renal

Row | Compound | TGI [1] | TGI [2] [µM] | TGI [3] [µM] | TGI [4] | TGI [5] | TGI [6] [µM] | TGI [7] | TGI [8] [µM] | TGI [9] | TGI [10]
1 | O=C1c2ccccc2CN1c1ccc(O)cc1 | > 100 µM | > 100 | > 100 | > 100 µM | > 100 µM | > 100 | > 100 µM | > 100 | > 100 µM | > 100 µM
2 | NC(CSCc1ccccc1)C(=O)O (stereo not given) | > 100 µM | > 100 | > 100 | > 100 µM | > 100 µM | > 100 | > 100 µM | > 100 | > 100 µM | > 100 µM
3 | C=C(Cl)/C(=C\Cl)CCC(Br)C(C)C (stereo not given) | > 100 µM | > 100 | > 100 | > 100 µM | > 100 µM | > 100 | > 100 µM | 45.4 | > 100 µM | > 100 µM
4 | O=C1C(c2c(O)[nH]c3ccc(S(=O)(=O)O)cc23)=Nc2ccccc21 | > 100 µM | > 100 | > 100 | > 100 µM | > 100 µM | > 100 | > 100 µM | > 100 | > 100 µM | > 100 µM
5 | C[n+]1c(-c2ccccc2)cc2/c(=C\c3ccc([N+](=O)[O-])cc3)c3ccccc3n21 | > 100 µM | 1.67 | 25.4 | > 37.6 µM | > 100 µM | > 41.7 | 44.2 µM | 16.1 | 10.9 µM | > 33.6 µM
6 | C=C1C(=O)OC2/C=C(\CO)C(OC(C)=O)CC(O)/C(C)=C/C(OC(=O)C(C)CC)C12 (stereo not given) | 36 µM and 38.7 µM | 36.9 | > 100 | 31.1 µM and 33.3 µM | 63.6 µM and > 100 µM | 39.2 | 54.5 µM and 61.5 µM | 32.7 | 32.3 µM and 33.1 µM | 36 µM and 36.6 µM
7 | CC(C)(C)N=c1n(C(C)(C)C)oc(=O)n1C(C)(C)C | > 100 µM | > 100 | > 100 | > 100 µM | > 100 µM | > 100 | > 100 µM | > 100 | > 100 µM | > 100 µM
8 | CC1(C)O[C@@H]2COC(=O)[C@@H]2O1 | > 100 µM | > 100 | > 100 | > 100 µM | > 100 µM | > 100 | > 100 µM | > 100 | > 100 µM | > 100 µM
9 | C=C1[C@@H](O)C[C@@]23CC[C@@H]4[C@@]5(C)CC[C@@H](OC(C)=O)C(C)(C)[C@@H]5C[C@@H](OC5OC(COC(C)=O)C(O)C(O)C5O)[C@@]4(C)C2=CC[C@H]3[C@H]1C (stereo not given in full) | 21 µM | 21.4 | 26.1 | 16.4 µM | 17.2 µM | 5.07 | 25.9 µM | 21.4 | 7.39 µM | 21 µM
10 | CC(C)=CCc1c2c(c3occ(-c4ccc(O)c(O)c4)c(=O)c3c1O)C=CC(C)(C)O2 | 3.67 µM | 13.8 | 20.5 | 3.5 µM | 3.21 µM | 2.12 | 17.3 µM | 2.97 | 11.1 µM | 3.07 µM
11 | COc1ccc(CC(CO)NC(=O)OCc2ccccc2)cc1Oc1ccc(CC(CO)NC(=O)OCc2ccccc2)cc1 (stereo not given) | 41.5 µM | 32.3 | 28.8 | 23.3 µM | 66.6 µM | > 100 | 19.1 µM | 36 | 32.4 µM | 39.3 µM
12 | CCCCOC(C)(C)/C=C/C(O)[C@](C)(O)[C@H]1[C@H](O)C[C@@]2(C)[C@@H]3CCc4c(cc(OC5OC(CO)C(O)C(O)C5O)c(O)c4C)C3(C)C(=O)C[C@]12C (stereo not given in full) | > 100 µM | > 100 | > 100 | > 100 µM | > 100 µM | > 100 | > 100 µM | > 100 | > 100 µM | > 100 µM
13 | O=c1cc(/C=C/c2ccc(O)c(O)c2)oc(/C=C/c2ccc(O)c(O)c2)c1 | 19.4 µM | 15.2 | 21.8 | 16.5 µM | 21.2 µM | 8.52 | 18.1 µM | 21.6 | 9.97 µM | 16 µM
14 | Cc1cc(C)c2c(=O)n(CN3CC4Nc5ccccc5C4C3)sc2n1 (stereo not given) | 35.8 µM | > 100 | > 100 | 63.1 µM | 46.2 µM | > 100 | 88.5 µM | 37.5 | 54.2 µM | > 100 µM
